Earlier results, collected in patent US8648119B2, “Controlled release immunomodulator compositions and methods for the treatment of otic disorders” (Otonomy, Inc., priority 2008, dated 2014).

Assays:
[1] = tested on: Langerhans' cells or dermal connective tissue; settings: in vivo
[2] = tested on: mouse collagen-induced arthritis model; settings: 30 mg/kg dose
[3] = tested on: TNF-α production in the LPS-induced human PBMC cells; settings: read-out: IC50 for inhibiting TNF-α production
TACE = TACE (Homo sapiens, UniProt P78536)
TACE, sequence (P78536 215-824): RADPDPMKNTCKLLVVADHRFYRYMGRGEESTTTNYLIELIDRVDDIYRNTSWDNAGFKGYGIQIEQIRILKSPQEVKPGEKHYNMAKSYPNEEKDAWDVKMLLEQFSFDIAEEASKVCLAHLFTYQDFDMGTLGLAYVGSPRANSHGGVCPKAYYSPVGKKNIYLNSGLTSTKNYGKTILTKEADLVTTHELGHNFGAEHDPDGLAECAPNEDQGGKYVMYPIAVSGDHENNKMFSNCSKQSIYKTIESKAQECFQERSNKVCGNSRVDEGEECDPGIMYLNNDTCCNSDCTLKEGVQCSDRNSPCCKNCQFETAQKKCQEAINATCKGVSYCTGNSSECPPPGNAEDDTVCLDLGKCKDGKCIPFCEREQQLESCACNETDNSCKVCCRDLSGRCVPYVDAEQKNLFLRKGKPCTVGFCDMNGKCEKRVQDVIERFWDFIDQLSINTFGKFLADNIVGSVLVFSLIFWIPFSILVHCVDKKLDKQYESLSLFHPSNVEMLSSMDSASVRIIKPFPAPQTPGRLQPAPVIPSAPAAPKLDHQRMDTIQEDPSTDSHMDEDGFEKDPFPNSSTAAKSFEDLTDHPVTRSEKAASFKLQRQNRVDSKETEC

[4] = tested on: TNF-α production in the LPS-induced MonoMac-6 cells; settings: read-out: IC50 for inhibiting TNF-α production
[5] = in vivo
Meniere's disease = settings: infusion into the scala tympani
rat arthritis model = settings: 30 mg/kg
lymphotoxin (TNF-β) = biological target: T1, lymphotoxin (TNF-β (Homo sapiens, UniProt P01374))
T1 sequence (P01374 35-205): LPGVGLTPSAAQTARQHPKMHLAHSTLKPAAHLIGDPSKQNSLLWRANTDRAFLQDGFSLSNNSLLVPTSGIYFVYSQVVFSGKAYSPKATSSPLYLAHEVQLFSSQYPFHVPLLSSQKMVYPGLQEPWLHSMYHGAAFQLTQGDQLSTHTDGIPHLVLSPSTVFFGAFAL

TNF expressing cells = settings: in vitro, in the presence of complement
patients [6] = tested on: patients
patients [7] = settings: three phase-III clinical trials

C=CC[C@@H]1/C=C(\C)C[C@H](C)C[C@H](OC)[C@H]2O[C@@](O)(C(=O)C(=O)N3CCCC[C@H]3C(=O)O[C@H](/C(C)=C/[C@@H]3CC[C@@H](O)[C@H](OC)C3)[C@H](C)[C@@H](O)CC1=O)[C@H](C)C[C@@H]2OC (relative stereo) [tacrolimus, [3S-[3R*[E(1S*,3S*,4S*)], 4S*,5R*,8S*,9E,12R*,14R*,15S*,16R*,18S*,19S*,26aR*]]-5,6,8,11,12,13,14,15,16,17,18,19,24,25,26,26a-hexadecahydro-5,19-dihydroxy-3-[2-(4-hydroxy-3-methoxycyclohexyl)-1-methylethenyl]-14,16-dimethoxy-4,10,12,18-tetramethyl-8-(2-propenyl)-15,19-epoxy-3H-pyrido[2,1-39c][1,4]oxaazacyclotricosine-1,7,20,21 (4H,23H)-tetrone monohydrate]
bioavailability after topical application: less than 0.5% | systemic exposure after topical application: very little, if any, systemic exposure | atrophy of the skin [1]: do not cause atrophy of the skin | suppression of Langerhans' cells or dermal connective tissue [1]: do not suppress Langerhans' cells or dermal connective tissue

Cc1ccc2nc(NCCN)c3ncc(C)n3c2c1 [BMS-345541]
severity of disease [2]: significantly reduced the severity of disease

CC[C@H](C)[C@H](NC(=O)[C@H](CC(C)C)[C@H](C(C)C)N(O)C=O)C(=O)Nc1ccccn1 [GW3333]
IC50 [3]: 970 nM

CC(C)C[C@@H](C(=O)N[C@@H](CCCN/C(N)=N/[N+](=O)[O-])C(=O)Nc1nccs1)[C@H](C(C)C)N(O)C=O [Nitroarginine analog A]
IC50 (TACE): 4 nM | IC50 [4]: 34 nM | oral activity [5]: lacks oral activity

Cc1ccccc1C(=O)Nc1ccc(C(=O)N2CCCC(N(C)C)c3ccccc32)cc1 (centres unmarked) [OPC-31260]
Meniere's disease symptoms (Meniere's disease): marked reduction of Meniere's disease symptoms

O=C(Nc1cc(Cl)cc2c1[nH]c1cnccc12)c1cccnc1 [PS-1145]
production of TNF-α (LPS-challenged mice): reduces the production of TNF-α

COc1cccc2nc(-c3cccs3)nc(NN3C(=O)C=C(C)C3=O)c12 [SPC-839]
paw edema (rat arthritis model): reduces paw edema

CC[C@@H]1/C=C(\C)C[C@H](C)C[C@H](OC)[C@H]2O[C@@](O)(C(=O)C(=O)N3CCCC[C@H]3C(=O)O[C@H](/C(C)=C/[C@@H]3CC[C@H](Cl)[C@H](OC)C3)[C@H](C)[C@@H](O)CC1=O)[C@H](C)C[C@@H]2OC [pimecrolimus, (1R,9S,12S,13R,14S,17R,18E,21S,23S,24R,25S,27R)-12-[(1E)-2-{(1R,3R,4S)-4-chloro-3-methoxycyclohexyl}-1-methylvinyl]-17-ethyl-1,14-dihydroxy-23,25-dimethoxy-13,19,21,27-tetramethyl-11,28-dioxa-4-aza-tricyclo[22.3.1.04,9]octacos-18-ene-2,3,10,16-tetraone]
systemic exposure after topical application: very little, if any, systemic exposure | atrophy of the skin [1]: do not cause atrophy of the skin | suppression of Langerhans' cells or dermal connective tissue [1]: do not suppress Langerhans' cells or dermal connective tissue

Adalimumab
binding or inactivation of lymphotoxin (TNF-β) (lymphotoxin (TNF-β)): does not bind or inactivate lymphotoxin | lysis of TNF expressing cells (TNF expressing cells): lyses TNF expressing cells in vitro | patients developing injection site reactions (erythema and/or itching, hemorrhage, pain and/or swelling) (patients [6]; systemic administration): 20%

etanercept
patients experiencing injection site reactions (mild to moderate erythema and/or itching, pain and/or swelling) (patients [6]; systemically treated): over one-third of patients

onercept: a soluble TNF p55 receptor, TNF binding factor (Serono)
adverse outcome reported in phase-III clinical trials (patients [7]): patients diagnosed with fatal sepsis
